# Data from patent US20230174584A1, “Antibiotic Compounds” (priority 2019, published 2023).
# Key:
# E. faecium E155 = assay: microbe, parasite or virus in culture; format: cell-based, Enterococcus faecium; settings: Enterococcus faecium
# In short: (§1)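 Inoculum 10^6 CFU/mL in TSB/0.002% p80 (Enterococcus, VISA, VRSA pre-grown to 0.5 McFarland). 2-fold dilutions, 1:1 with inoculum. 37 °C × 24 h, 600 rpm, sealed breathable membrane. MIC median of ≥3.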
# E. faecium E7314 = assay: microbe, parasite or virus in culture; format: cell-based, Enterococcus faecium; settings: Enterococcus faecium
# In short: as §1
# [1] = test system: S. aureus HIP13419, NR-46413; assay: microbe, parasite or virus in culture; format: cell-based, Staphylococcus aureus; settings: Staphylococcus aureus, VRSA
# In short: as §1
# S. aureus USA300 = assay: microbe, parasite or virus in culture; format: cell-based, Staphylococcus aureus; settings: Staphylococcus aureus, MRSA / USA300
# In short: as §1
# E. faecalis E7406 = assay: microbe, parasite or virus in culture; format: cell-based, Enterococcus faecalis; settings: Enterococcus faecalis, VRE
# In short: as §1
# E. faecalis E7604 = assay: microbe, parasite or virus in culture; format: cell-based, Enterococcus faecalis; settings: Enterococcus faecalis, VRE
# In short: as §1
# E. faecium E2359 = assay: MIC assay; format: cell-based, Enterococcus faecium; settings: Enterococcus faecium, E2359
# E. faecium E980 = assay: MIC assay; format: cell-based, Enterococcus faecium; settings: Enterococcus faecium, E980
# In short: as §1
# E. faecium E7403 = assay: MIC assay; format: cell-based, Enterococcus faecium; settings: Enterococcus faecium, E7403
# In short: as §1
# VRS2 = assay: MIC assay, VISA and VRSA panel; format: cell-based, Staphylococcus aureus; settings: Staphylococcus aureus
# Method: (§2) The antibacterial activity of the compounds was tested against a panel of bacteria, including Gram-positive bacteria (S. aureus ATCC29213, S. aureus USA300, S. aureus LIM-2, NR-45881, S. aureus HIP13419, NR-46413, E. faecium E155, E. faecium E7314, E. faecium E980, E. faecalis E1246, E. faecalis E7406 and S. pneumonia 153). The antibacterial activity of the compounds was further tested against S. aureus NY-155, NR-46236, S. aureus HIP12864, NR-46074, S. aureus 880 (BR-VRSA), NR-49120, E. faecalis E1246, E. faecalis E7604, as well as some Gram-negative bacteria (Escherichia coli and Klebsiella pneumoniae). Minimum inhibitory concentrations (MICs) in μg/mL were performed according to the CLSI guidelines. From glycerol stocks, bacterial strains were cultured on blood agar plates and incubated at 37° C. for 18 h. A single colony was transferred to tryptic soy broth (TSB) with 0.002% polysorbate 80 (p80). For the Enterococcus, VISA and VRSA strains, the cultures were grown at 37° C. until the optical density of the suspension reached a level equivalent to the 0.5 McFarland standard. The bacterial suspensions were diluted in TSB with 0.002% p80 to reach a bacterial cell density of 10^6 CFU/mL. In case of the other (vancomycin-sensitive) S. aureus strains, the direct colony suspension method was used. For these strains, after transfer of the colonies to TSB with 0.002% p80, they were immediately diluted to 10^6 CFU/mL, instead of incubated prior to this dilution. In the case of S. pneumonia, direct colony suspension was used by immediately suspending multiple colonies from fresh blood agar plates in TSB+0.002% p80 to an OD600 of 0.5 and subsequent dilution to 10^6 CFU mL^−1 in TSB+0.002% p80+5% lysed horse blood. Antibiotic dilutions for this strains were also made in TSB+0.002% p80+5% lysed horse blood. Both agar and microplates containing S. pneumonia were incubated at 37° C. with 5% CO2 for 24 h with constant shaking (600 rpm). […] The cultures were grown to exponential phase (OD600=0.5) at 37° C. […] In polypropylene 96-well microtiter plates, test compounds were added in biological triplicates and serial diluted 2-fold by transfer and mixing from one well to the next to achieve a final volume of 50 μL per well. An equal volume of bacterial suspension (10^6 CFU mL^−1) was added to the wells. The plates were sealed with breathable membranes and incubated at 37° C. for 24 h with constant shaking (600 rpm). In polypropylene microtiter plates, 100 μL of the test compounds was added to the first row in biological triplicates, and 50 μL of media was added to the other wells. The compounds were subjected to serial dilution by transfer and mixing of 50 μL from one well to the next. Subsequently, 50 μL of bacterial suspension (10^6 CFU/mL) was added to the wells. The plates were sealed with breathable membranes and incubated at 37° C. for 24 h with constant shaking (600 rpm). Positive growth control consisted of wells with bacterial suspension and without antibiotic. Negative growth control consisted of solely media without bacterial suspension or antibiotic. The MICs were determined from the median of a minimum of triplicates.
# NRS52 = assay: MIC assay, VISA and VRSA panel; format: cell-based, Staphylococcus aureus; settings: Staphylococcus aureus, NRS52
# Method: as §2
# NRS19 = assay: MIC assay, VISA and VRSA panel; format: cell-based, Staphylococcus aureus; settings: Staphylococcus aureus, NRS19
# Method: as §2
# NRS51 = assay: MIC assay, VISA and VRSA panel; format: cell-based, Staphylococcus aureus; settings: Staphylococcus aureus, NRS51
# Method: as §2
# VRS5 = assay: MIC assay, VISA and VRSA panel; format: cell-based, Staphylococcus aureus; settings: Staphylococcus aureus
# Method: as §2
# E. faecium E0341 = assay: MIC assay; format: cell-based, Enterococcus faecium; settings: Enterococcus faecium, E0341
# [2] = test system: S. aureus NY-155, NR-46236; assay: MIC assay; format: cell-based, Staphylococcus aureus; settings: Staphylococcus aureus, MRSA
# In short: as §1
# [3] = test system: S. aureus LIM-2, NR-25881; assay: MIC assay; format: cell-based, Staphylococcus aureus; settings: Staphylococcus aureus, VISA
# In short: as §1
# [4] = test system: S. aureus HIP12864, NR-46074; assay: MIC assay; format: cell-based, Staphylococcus aureus; settings: Staphylococcus aureus, VISA
# In short: as §1
# [5] = test system: S. aureus 880 (BR-VRSA), NR-49120; assay: MIC assay; format: cell-based, Staphylococcus aureus
# In short: as §1
# S. aureus ATCC29213 = assay: MIC assay; format: cell-based, Staphylococcus aureus; settings: Staphylococcus aureus, ATCC 29213 / MSSA
# In short: as §1
structure (smiles),measurement,setting,value
"CCCCCCCCCCNCCN[C@@]1(C)C[C@H](O[C@H]2[C@H](Oc3c4cc5cc3Oc3ccc(cc3Cl)[C@@H](O)[C@@H](NC(=O)[C@@H](CC(C)C)NC)C(=O)N[C@@H](CC(N)=O)C(=O)N[C@H]5C(=O)N[C@H]3C(=O)N[C@H](C(=O)N[C@H](C(=O)O)c5cc(O)c(CNCP(=O)(O)O)c(O)c5-c5cc3ccc5O)[C@H](O)c3ccc(c(Cl)c3)O4)O[C@H](CO)[C@@H](O)[C@@H]2O)O[C@@H](C)[C@H]1O [Telavancin, reference compound]",MIC,E. faecium E155; E155,4 mg/L
same,MIC,E. faecium E155; VRE,4 mg/L
same,MIC,E. faecium E7314; E7314,≤ 0.008 mg/L
same,MIC,E. faecium E7314; VRE,≤ 0.00781 mg/L
same,MIC,[1],4 mg/L
same,MIC,S. aureus USA300,0.125 mg/L
same,MIC,E. faecalis E7406,0.0625 mg/L
same,MIC,E. faecalis E7604,0.063 mg/L
same,MIC,E. faecium E2359,≤ 0.008 mg/L
same,MIC,E. faecium E980,0.0156 mg/L
same,MIC,E. faecium E7403,≤ 0.008 mg/L
same,MIC,VRS2,2 mg/L
same,MIC,NRS52,0.25 mg/L
same,MIC,NRS19,0.25 mg/L
same,MIC,NRS51,0.125 mg/L
same,MIC,VRS5,4 mg/L
same,MIC,E. faecium E0341,8 mg/L
same,MIC,[2],0.031 mg/L
same,MIC,[3],0.25 mg/L
same,MIC,[4],0.25 mg/L
same,MIC,"[5]; Staphylococcus aureus, VRSA",8 mg/L
same,MIC,[5]; strain BR-VRSA,8 mg/L
same,MIC,S. aureus ATCC29213,0.125 mg/L
